In patent publication US20180251431A1 (VERTEX PHARMACEUTICALS INCORPORATED, priority 2016, published 2018) one finds IC50 data, which are given here for one compound.

Read-outs that look alike come from different tables or passages of the source.

The experiment has as its system HEK293 cells. Briefly: HEK293 VLCFA-LPC IC50 determination (13C-labeled C26:0 LPC by UHPLC/MS). The format is cell-based, human. As to conditions: Homo sapiens. In a few lines:
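Suspension HEK293 cells (final 0.5 million/mL after mixing with equal volume) incubated 48 hours with compound plus 13C-acetate (1.0 mg/mL in added media), shaking at 37° C. Lipids extracted with hexane/isopropanol or methanol, C13:0 LPC standard. UHPLC/MS of 13C-labeled C26:0 LPC (638.500/104.100 m/z); IC50 by four-parameter fit.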

A word on the IC50: it is the midpoint of a concentration-inhibition curve. For the compound `O=C(Nc1ccn(-c2ccnc(F)c2)n1)C1(c2ccccc2F)CC1` [Compound 87, 1-(2-fluorophenyl)-N-[1-(2-fluoro-4-pyridyl)pyrazol-3-yl]cyclopropanecarboxamide], the IC50 (HEK293, 48 h, HEK293, half maximal reduction in C26:0 LPC, about 48 hours, read-out: IC50) came out at 8 nM and the IC50 (HEK293, HEK293 cells, average of one or more replicates, read-out: Average HEK293 IC50) was 13 nM.
